Values joined by “and” are separate entries in the source; they are usually repeats but may differ in a detail not shown here. Identical values can stand only once.
Target: 3',5'-cyclic-AMP phosphodiesterase 4A (Homo sapiens, UniProt P27815)
Assay: Inhibition of human full length recombinant PDE4A1A using FAM-cAMP as substrate after 30 mins by fluorescence based spectrophotometric method

Chain of 3',5'-cyclic-AMP phosphodiesterase 4A (P27815 whole entry): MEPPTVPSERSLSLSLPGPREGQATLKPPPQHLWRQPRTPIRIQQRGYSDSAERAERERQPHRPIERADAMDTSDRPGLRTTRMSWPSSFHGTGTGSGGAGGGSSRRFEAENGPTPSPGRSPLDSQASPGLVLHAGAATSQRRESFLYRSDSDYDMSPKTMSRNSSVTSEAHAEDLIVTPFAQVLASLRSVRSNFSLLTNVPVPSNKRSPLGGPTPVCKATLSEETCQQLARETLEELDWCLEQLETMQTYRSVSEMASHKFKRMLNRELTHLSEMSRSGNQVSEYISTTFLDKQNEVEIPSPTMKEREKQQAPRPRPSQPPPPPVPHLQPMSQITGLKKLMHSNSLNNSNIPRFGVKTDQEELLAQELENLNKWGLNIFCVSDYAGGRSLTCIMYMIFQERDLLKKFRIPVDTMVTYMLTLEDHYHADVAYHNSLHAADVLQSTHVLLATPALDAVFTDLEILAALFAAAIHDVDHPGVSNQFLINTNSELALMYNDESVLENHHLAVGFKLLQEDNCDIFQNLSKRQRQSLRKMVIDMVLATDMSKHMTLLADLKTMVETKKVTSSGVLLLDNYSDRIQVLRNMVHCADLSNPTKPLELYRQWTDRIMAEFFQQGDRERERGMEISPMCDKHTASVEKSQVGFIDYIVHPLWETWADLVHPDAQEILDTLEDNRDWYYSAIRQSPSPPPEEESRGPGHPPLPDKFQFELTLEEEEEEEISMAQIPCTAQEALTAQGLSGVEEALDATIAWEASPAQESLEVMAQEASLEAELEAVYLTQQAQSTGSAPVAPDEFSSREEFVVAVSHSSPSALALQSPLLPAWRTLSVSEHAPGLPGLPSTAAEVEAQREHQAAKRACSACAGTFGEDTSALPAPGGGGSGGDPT

IC50: 70 µM and 125 µM
SMILES: CCCn1c(=O)c2ccc(N)nc2n(-c2cc(OC)ccc2OC)c1=O

Reference: ChEMBL document CHEMBL4043107, “Stable C-N axial chirality in 1-aryluracil scaffold and differences in in vitro metabolic clearance between atropisomers of PDE4 inhibitor” (Bioorg Med Chem, 2017)
